Test results taken from patent US4713381A, “Oxodiazine compounds and pharmaceutical compositions thereof” (Yoshitomi Pharmaceutical Industries, Ltd., priority 1985, dated 1987).
Values after ≈ are worked out from the molar mass of the structure shown. Where two headings read alike, the source gives them in different places.

Legend:
platelet aggregation [1] = assay: Effects on platelet aggregation in vitro (ADP-induced, rat platelet-rich plasma, Born type aggregometer); assay type: cell-based, rats; settings: 2 min, read-out: 50% inhibitory concentrations (IC50)
Protocol: 1. Effects on platelet aggregation in vitro
Samples of blood are collected from rats weighing 400-450 g and mixed with a 1/10 volume of 3.8% sodium citrate solution. The citrated blood is centrifugated at 200×g for 10 minutes to yield platelet-rich plasma. Test compound is added to platelet-rich plasma thus obtained and maintained at 37° C. for 2 minutes. The platelet aggregation is induced by the addition of 10^-5 M adenosine diphosphate (final concentration) and measured with a Born type six channel aggregometer (Journal of Physiology, vol. 168, pp. 175-198, 1963.
50% inhibitory concentrations (IC50, μg/ml) as compared the control group are calculated. Aspirin and ticlopidine are employed as compounds for comparison.

platelet aggregation [2] = assay: Effects on platelet aggregation ex vivo (ADP-induced, rat platelet-rich plasma 2 hours after oral administration); assay type: in vivo; settings: p.o., rats, after 2 hours, 10^-5 M adenosine diphosphate
Protocol: 2. Effects on platelet aggregation ex vivo
Test compound is orally administered to rats weighing 400-450 g. After 2 hours, samples of blood are collected from the rats and mixed with a 1/10 volume of 3.8% sodium citrate solution. The citrated blood is centrifugated at 200×g for 10 minutes to yield platelet-rich plasma. The platelet aggregation is induced by the addition of 10^-5 M adenosine diphosphate (final concentration) and measured with the same aggregometer as described in the above Method.
Percentage of inhibition as compared with the control group administered with the solvent are calculated.

[3] = rat platelet-rich plasma, 37° C., 2 minutes, 10^-5 M adenosine diphosphate

| SMILES | IC50 (platelet aggregation [1]; Rattus norvegicus, Platelet) [µg/mL] | IC50 (platelet aggregation [1]; [3]) [µg/mL] | inhibition at 10 mg/kg (platelet aggregation [2]) [%] |
| --- | --- | --- | --- |
| CC(=O)Oc1ccccc1C(=O)O [Aspirin, reference compound] | > 300 |  |  |
| Cc1nc2ccccn2c1C1=NNC(=O)CO1 [Example 1, 2-(2-methylimidazo[1,2-a]pyridin-3-yl)-4,6-dihydro-1,3,4-oxadiazin-5-one] |  | 1 (≈ 4.34 µM) | 75 |
| Cc1nc2c(C)cccn2c1C1=NNC(=O)CO1 [Example 2, 2-(2,8-dimethylimidazo[1,2-a]pyridin-3-yl)-4,6-dihydro-1,3,4-oxadiazin-5-one] |  | 1.9 (≈ 7.78 µM) |  |
| Cc1ccc2nc(C)c(C3=NNC(=O)CO3)n2c1 [Example 3, 2-(2,6-dimethylimidazo[1,2-a]pyridin-3-yl)-4,6-dihydro-1,3,4-oxadiazin-5-one] |  | 3 (≈ 12.3 µM) |  |
| Cc1nc2sccn2c1C1=NNC(=O)CO1 [Example 5, 2-(6-methylimidazo[2,1-b]thiazol-5-yl)-4,6-dihydro-1,3,4-oxadiazin-5-one] |  | 0.5 (≈ 2.12 µM) | 54 |
| O=C1COC(c2csc3nccn23)=NN1 [Example 16, 2-(Imidazo[2,1-b]thiazol-3-yl)-4,6-dihydro-1,3,4-oxadiazin-5-one] |  |  | 60 |
| Cc1c(C2=NNC(=O)CO2)sc2nccn12 [Example 17, 2-(3-Methylimidazo[2,1-b]thiazol-2-yl)-4,6-dihydro-1,3,4-oxadiazin-5-one] |  | 0.6 (≈ 2.54 µM) | 54 |
| O=C1COC(c2ccc3nccn3c2)=NN1 [Example 18, 2-(Imidazo[1,2-a]pyridin-6-yl)-4,6-dihydro-1,3,4-oxadiazin-5-one] |  | 0.4 (≈ 1.85 µM) | 65 |
| Cl.O=C1COC(c2cccn3ccnc23)=NN1 [Example 19, 2-(Imidazo[1,2-a]pyridin-8-yl)-4,6-dihydro-1,3,4-oxadiazin-5-one hydrochloride] | 1 |  |  |
| Clc1ccccc1CN1CCc2sccc2C1 [Ticlopidine, ticlopidine, reference compound] |  | > 300 |  |
